According to US12018283B2, “Method for producing insulin-producing cells” (KATAOKA CORPORATION, priority 2018, dated 2024):

System: human fibroblasts
Assay: Direct induction from human fibroblasts into insulin-producing cells (immunostaining, morphology)
Type: cell-based
Conditions: from Table 1 and FIGS. 3 and 4; removal of one compound at a time

| Structure (SMILES) | importance for conversion into cells expressing insulin |
| --- | --- |
| C=C[C@@]1(C)CC(=O)[C@]2(O)[C@@]3(C)[C@@H](O)CCC(C)(C)[C@@H]3[C@H](O)[C@H](OC(C)=O)[C@@]2(C)O1 [forskolin, Forskolin] | of particular importance |
| O=c1cc(N2CCOCC2)oc2c(-c3ccccc3)cccc12 [LY294002] | of particular importance |
